Experimental data taken from patent US9999222B2, “Herbicidal combination comprising azines” (BASF SE, priority 2014, dated 2018).
Several values for one entry are separate records, joined by “and”; a condition that tells them apart may be missing. Equal entries are not always repeated. Where two headings read alike, the source gives them in different places.

Assays:
Experiment in all cases: Greenhouse test, pre-emergence treatment
VIOAR = format: in vivo, Viola arvensis
Source text: (§1) The culture containers used were plastic flowerpots containing loamy sand with approximately 3.0% of humus as the substrate. The seeds of the test plants were sown separately for each species.
(§2) For the pre-emergence treatment, the active ingredients, which had been suspended or emulsified in water, were applied directly after sowing by means of finely distributing nozzles. The containers were irrigated gently to promote germination and growth and subsequently covered with transparent plastic hoods until the plants had rooted. This cover caused uniform germination of the test plants, unless this had been impaired by the active ingredients.
(§3) Depending on the species, the plants were kept at 10-25° C. or 20-35° C., respectively.
(§4) The test period extended over 2 to 4 weeks. During this time, the plants were tended, and their response to the individual treatments was evaluated.
(§5) Evaluation was carried out using a scale from 0 to 100. 100 means no emergence of the plants, or complete destruction of at least the aerial moieties, and 0 means no damage, or normal course of growth. A moderate herbicidal activity is given at values of at least 60, a good herbicidal activity is given at values of at least 70, and a very good herbicidal activity is given at values of at least 85.
(§6) The respective stated components a and b, and if appropriate, c were formulated as a 10% by weight strength emulsion concentrate and, with addition of the amount of solvent system, introduced into the spray liquor used for applying the active compound.
(§7) In the examples, the solvent used was water.
(§8) In the examples below, using the method of S. R. Colby (1967) “Calculating synergistic and antagonistic responses of herbicide combinations”, Weeds 15, p. 22ff., the value E, which is expected if the activity of the individual active compounds is only additive, was calculated. E=X+Y−(X·Y/100) where • X=percent activity using active compound a at an application rate A; • Y=percent activity using active compound b at an application rate B; • E=expected activity (in %) by a+b at application rates A+B.
(§9) If the value found experimentally is higher than the value E calculated according to Colby, a synergistic effect is present.

CENCY [1] = format: in vivo; details: 480 h, individual, read-out: observed % activity 20 DAT
SIDRH = format: in vivo, Sida rhombifolia
Summary of the method: (§10)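 Seeds were sown in loamy sand with about 3.0% humus, and compounds in water were sprayed immediately after sowing, alone or as combinations formulated as 10% emulsion concentrates. Plants grew under hoods until rooted, at 10-25 °C or 20-35 °C by species, for 2 to 4 weeks. Damage was scored 0-100 (100 = no emergence or complete destruction), and Colby expected values were E=X+Y−(X·Y/100).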

APESV = format: in vivo, Apera spica-venti; details: for inhibition at 12.5 g/ha: use rate 12.5 g ai/ha; for inhibition at 25 g/ha: use rate 25 g ai/ha
Source text: as §1, §2, §3, §4, §5, §6, §7, §8, §9

ANTAR = format: in vivo; details: Anthemis arvensis, 480 h, 20 DAT, read-out: observed % activity
Summary of the method: as §10

ELEIN = format: in vivo, Eleusine indica
Source text: as §1, §2, §3, §4, §5, §6, §7, §8, §9

DIGSA [2] = format: in vivo; details: Digitaria sanguinalis, 480 h, read-out: observed % activity 20 DAT
IPOHE = format: in vivo, Ipomoea hederacea; details: Ipomoea hederacea, 480 h
Summary of the method: as §10

DIGSA [3] = format: in vivo, Digitaria sanguinalis; details: 8 g ai/ha
CENCY [4] = format: in vivo, Centaurea cyanus
SETVI = format: in vivo, Setaria viridis
Source text: as §1, §2, §3, §4, §5, §6, §7, §8, §9

MATIN = format: in vivo
ERICA [5] = format: in vivo, Erigeron canadensis
ERICA [6] = format: in vivo; details: 480 h, 125 g ai/ha, read-out: observed % activity 20 DAT
[7] = Apera spica-venti, 480 h, APESV, 20 DAT, read-out: observed % activity 20 DAT
[8] = Apera spica-venti, 480 h, read-out: observed % activity 20 DAT

Structure (SMILES): CC(C)N(C(=O)COc1nnc(C(F)(F)F)s1)c1ccc(F)cc1 [Flufenacet, flufenacet]
- observed % activity 20 DAT (VIOAR; use rate 30 g ai/ha): 0%

Structure (SMILES): CC(C)N(C)S(=O)(=O)NC(=O)c1cc(-n2c(=O)cc(C(F)(F)F)n(C)c2=O)c(F)cc1Cl [Saflufenacil, saflufenacil]
- inhibition at 5 g/ha (CENCY [1]; use rate 5 g ai/ha): 20%
- inhibition at 10 g/ha (CENCY [1]; use rate 10 g ai/ha): 30%
- inhibition at 5 g/ha (SIDRH; Sida rhombifolia, pre-emergence, 480 h, 5 g ai/ha, 20 DAT, read-out: observed % activity): 55%
- inhibition at 10 g/ha (SIDRH; Sida rhombifolia, pre-emergence, 480 h, 10 g ai/ha, 20 DAT, read-out: observed % activity): 90%
- inhibition at 10 g/ha (SIDRH; Sida rhombifolia, pre-emergence, 480 h, SIDRH, pre-emergence, individual, use rate 10 g ai/ha, read-out: observed % activity 20 DAT): 20%
- inhibition at 10 g/ha (SIDRH; Sida rhombifolia, pre-emergence, 480 h, pre-emergence, 10 g ai/ha, read-out: observed % activity 20 DAT): 20%
- inhibition at 3.125 g/ha (APESV; Apera spica-venti, 480 h, APESV, use rate 3.125 g ai/ha, 20 DAT, read-out: observed % activity 20 DAT): 0%
- inhibition at 5 g/ha (ANTAR; 5 g ai/ha): 98%
- inhibition at 18 g/ha (ELEIN; Eleusine indica, 480 h, 18 g ai/ha, read-out: observed % activity 20 DAT): 35%
- inhibition at 36 g/ha (ELEIN; Eleusine indica, 480 h, 36 g ai/ha, read-out: observed % activity 20 DAT): 95%
- inhibition at 18 g/ha (DIGSA [2]; 18 g ai/ha): 0%
- inhibition at 36 g/ha (DIGSA [2]; 36 g ai/ha): 65%

Structure (SMILES): Cn1nc(C(F)(F)F)c(CS(=O)(=O)C2=NOC(C)(C)C2)c1OC(F)F [Pyroxasulfone, pyroxasulfone]
- pest or weed control at 24 g/ha (IPOHE; 24 g ai/ha, read-out: observed % activity 20 DAT): 10%
- observed % activity 20 DAT (DIGSA [3]): 95%
- pest or weed control at 12 g/ha (SIDRH; Sida rhombifolia, 480 h, pre-emergence, 12 g ai/ha, read-out: observed % activity 20 DAT): 45%
- pest or weed control at 24 g/ha (SIDRH; Sida rhombifolia, 480 h, pre-emergence, 24 g ai/ha, read-out: observed % activity 20 DAT): 95%
- observed % activity 20 DAT (SIDRH; pre-emergence, 12 g ai/ha): 45%
- observed % activity 20 DAT (CENCY [4]; 24 g ai/ha): 15%
- inhibition at 12.5 g/ha (APESV; [7]): 40%
- inhibition at 25 g/ha (APESV; [7]): 50%
- inhibition at 12.5 g/ha (APESV; [8]): 50%
- inhibition at 25 g/ha (APESV; [8]): 60%
- observed % activity 20 DAT (SETVI; 8 g ai/ha): 85%

Structure (SMILES): COCC(C)N(C(=O)CCl)c1c(C)csc1C (centres unmarked) [Dimethenamid, dimethenamid]
- pest or weed control at 250 g/ha (SIDRH; Sida rhombifolia, 480 h, pre-emergence, 250 g ai/ha, read-out: observed % activity 20 DAT): 70%
- observed % activity 20 DAT (SIDRH; pre-emergence, 250 g ai/ha): 70%
- observed % activity 20 DAT (APESV; use rate 62.5 g ai/ha, 20 DAT): 95%
- inhibition at 31.25 g/ha (VIOAR; Viola arvensis, 480 h, use rate 31.25 g ai/ha, read-out: observed % activity 20 DAT): 0%
- inhibition at 62.5 g/ha (VIOAR; Viola arvensis, 480 h, use rate 62.5 g ai/ha, read-out: observed % activity 20 DAT): 0%
- inhibition at 125 g/ha (VIOAR; Viola arvensis, 480 h, use rate 125 g ai/ha, read-out: observed % activity 20 DAT): 0%
- observed % activity 20 DAT (VIOAR; use rate 31.25 g ai/ha): 0%
- observed % activity 20 DAT (VIOAR; use rate 62.5 g ai/ha): 0%
- observed % activity 20 DAT (VIOAR; use rate 125 g ai/ha): 0%
- observed % activity 20 DAT (MATIN; use rate 62.5 g ai/ha): 70%
- observed % activity 20 DAT (MATIN; use rate 125 g ai/ha): 90%

Structure (SMILES): CCC(CC)Nc1c([N+](=O)[O-])cc(C)c(C)c1[N+](=O)[O-] [Pendimethalin, pendimethalin]
- observed % activity 20 DAT (ERICA [5]; 500 g ai/ha): 90%
- observed % activity 20 DAT (ERICA [5]; 1000 g ai/ha): 90%
- pest or weed control at 500 g/ha (IPOHE; 500 g ai/ha, read-out: observed % activity 20 DAT): 0%
- pest or weed control at 1000 g/ha (IPOHE; 1000 g ai/ha, read-out: observed % activity 20 DAT): 0%
- observed % activity 20 DAT (CENCY [4]; 500 g ai/ha): 25%
- observed % activity 20 DAT (CENCY [4]; 1000 g ai/ha): 0%
- inhibition at 125 g/ha (APESV; Apera spica-venti, 480 h, use rate 125 g ai/ha, read-out: observed % activity 20 DAT): 85%
- inhibition at 250 g/ha (APESV; Apera spica-venti, 480 h, use rate 250 g ai/ha, read-out: observed % activity 20 DAT): 75%
- inhibition at 500 g/ha (APESV; Apera spica-venti, 480 h, use rate 500 g ai/ha, read-out: observed % activity 20 DAT): 95%
- observed % activity 20 DAT (APESV; use rate 125 g ai/ha, 20 DAT): 60%
- observed % activity 20 DAT (APESV; use rate 250 g ai/ha, 20 DAT): 75%
- observed % activity 20 DAT (APESV; use rate 500 g ai/ha, 20 DAT): 95%
- observed % activity 20 DAT (VIOAR; use rate 500 g ai/ha): 80%
- observed % activity 20 DAT (ELEIN; 500 g ai/ha): 100%

Structure (SMILES): CC1(c2nc(N)nc(Nc3c(F)c(F)cc(F)c3F)n2)CCC1 [compound 8, 6-(1-methylcyclobutyl)-N4-(2,3,5,6-tetrafluorophenyl)-1,3,5-triazine-2,4-diamine]
- inhibition at 16 g/ha (IPOHE; 16 g ai/ha, 20 DAT, read-out: observed % activity): 35%
- observed % activity (SIDRH; 8 g ai/ha, 20 DAT): 80%
- observed % activity (SIDRH; 16 g ai/ha, 20 DAT): 80%
- inhibition at 8 g/ha (SIDRH; Sida rhombifolia, pre-emergence, 480 h, 8 g ai/ha, 20 DAT, read-out: observed % activity): 65%
- inhibition at 16 g/ha (SIDRH; Sida rhombifolia, pre-emergence, 480 h, 16 g ai/ha, 20 DAT, read-out: observed % activity): 85%
- inhibition at 8 g/ha (ANTAR; 8 g ai/ha): 80%
- inhibition at 16 g/ha (ANTAR; 16 g ai/ha): 85%

Structure (SMILES): CSc1nnc(C(C)(C)C)c(=O)n1N [metribuzin]
- inhibition at 250 g/ha (IPOHE; 250 g ai/ha, read-out: observed % activity 20 DAT): 20%
- inhibition at 125 g/ha (SETVI; Setaria viridis, 480 h, 125 g ai/ha, read-out: observed % activity 20 DAT): 65%
- inhibition at 250 g/ha (SETVI; Setaria viridis, 480 h, 250 g ai/ha, read-out: observed % activity 20 DAT): 95%
- inhibition at 125 g/ha (ERICA [6]): 98%
- inhibition at 125 g/ha (ELEIN; Eleusine indica, 480 h, 125 g ai/ha, read-out: observed % activity 20 DAT): 98%
- inhibition at 250 g/ha (ELEIN; Eleusine indica, 480 h, 250 g ai/ha, read-out: observed % activity 20 DAT): 98%

Structure (SMILES): CC(C)(F)c1nc(N)nc(Nc2c(F)c(F)cc(F)c2F)n1 [compound 2, 6-(1-Fluoro-1-methyl-ethyl)-N4-(2,3,5,6-tetrafluorophenyl)-1,3,5-triazine-2,4-diamine]
- inhibition at 1 g/ha (APESV; Apera spica-venti, 480 h, APESV, use rate 1 g ai/ha, 20 DAT, read-out: observed % activity 20 DAT): 95%
- inhibition at 2 g/ha (APESV; Apera spica-venti, 480 h, APESV, use rate 2 g ai/ha, 20 DAT, read-out: observed % activity 20 DAT): 95%
- observed % activity 20 DAT (APESV; use rate 2 g ai/ha, 20 DAT): 90% and 95%
- observed % activity 20 DAT (APESV; use rate 4 g ai/ha, 20 DAT): 98%
- observed % activity 20 DAT (VIOAR; use rate 2 g ai/ha): 50%
- observed % activity 20 DAT (MATIN; use rate 1 g ai/ha): 98%
